Source: PMC9150124, “Design of a Potent, Selective, and Brain-Penetrant Inhibitor of Wnt-Deactivating Enzyme Notum by Optimization of a Crystallographic Fragment Hit” (Journal of Medicinal Chemistry, 2022)

What was measured:
Experiment in all cases: SelectScreen kinase profiling, SSBK ZLyte SP Technology
Type in all cases: biochemical
[1] = biological target: kinase named in conditions (Homo sapiens, UniProt O14920); conditions: IKBKB (IKK beta), 10 μM
Procedure: (§1) Kinase selectivity screening was performed by Thermo Fisher Scientific (Paisley, U.K.) in their SelectScreen Biochemical Kinase Profiling Service. Assay information and data are presented in the Supporting Information.
(§2) Kinase selectivity screening was performed by ThermoFisher Scientific (Paisley, U.K.) in their SelectScreenTM
(§3) Biochemical Kinase Profiling service .

[2] = biological target: kinase named in conditions (Homo sapiens, UniProt P00519, F317L); conditions: ABL1 F317L, 10 μM
Procedure: as §1, §2, §3

[3] = biological target: kinase named in conditions (Homo sapiens, UniProt P04626); conditions: ERBB2 (HER2), 10 μM
Procedure: as §1, §2, §3

[4] = biological target: kinase named in conditions (Homo sapiens, UniProt P16234, T674I); conditions: PDGFRA T674I, 10 μM
Procedure: as §1, §2, §3

[5] = biological target: kinase named in conditions (Homo sapiens, UniProt P16591); conditions: FER, 10 μM
Procedure: as §1, §2, §3

[6] = biological target: kinase named in conditions (Homo sapiens, UniProt P17252); conditions: PRKCA (PKC alpha), 10 μM
Procedure: as §1, §2, §3

[7] = biological target: kinase named in conditions (Homo sapiens, UniProt P17612); conditions: PRKACA (PKA), 10 μM
Procedure: as §1, §2, §3

[8] = biological target: kinase named in conditions (Homo sapiens, UniProt P17948); conditions: FLT1 (VEGFR1), 10 μM
Procedure: as §1, §2, §3

[9] = biological target: kinase named in conditions (Homo sapiens, UniProt P22455); conditions: FGFR4, 10 μM
Procedure: as §1, §2, §3

[10] = biological target: kinase named in conditions (Homo sapiens, UniProt P23458); conditions: JAK1, 10 μM
Procedure: as §1, §2, §3

[11] = biological target: kinase named in conditions (Homo sapiens, UniProt P27448); conditions: MARK3, 10 μM
Procedure: as §1, §2, §3

[12] = biological target: kinase named in conditions (Homo sapiens, UniProt P32298); conditions: GRK4, 10 μM
Procedure: as §1, §2, §3

[13] = biological target: kinase named in conditions (Homo sapiens, UniProt P36888); conditions: FLT3, 10 μM
Procedure: as §1, §2, §3

[14] = biological target: kinase named in conditions (Homo sapiens, UniProt P42345); conditions: FRAP1 (mTOR), 10 μM
Procedure: as §1, §2, §3

[15] = biological target: kinase named in conditions (Homo sapiens, UniProt P45983); conditions: MAPK8 (JNK1), 10 μM
Procedure: as §1, §2, §3

[16] = biological target: kinase named in conditions (Homo sapiens, UniProt P48730); conditions: CSNK1D (CK1 delta), 10 μM
Procedure: as §1, §2, §3

[17] = biological target: kinase named in conditions (Homo sapiens, UniProt Q02156); conditions: PRKCE (PKC epsilon), 10 μM
Procedure: as §1, §2, §3

[18] = biological target: kinase named in conditions (Homo sapiens, UniProt Q02763); conditions: TEK (Tie2), 10 μM
Procedure: as §1, §2, §3

[19] = biological target: kinase named in conditions (Homo sapiens, UniProt Q02763, Y897S); conditions: TEK (TIE2) Y897S, 10 μM
Procedure: as §1, §2, §3

[20] = biological target: kinase named in conditions (Homo sapiens, UniProt Q08881); conditions: ITK, 10 μM
Procedure: as §1, §2, §3

[21] = biological target: kinase named in conditions (Homo sapiens, UniProt Q12851); conditions: MAP4K2 (GCK), 10 μM
Procedure: as §1, §2, §3

[22] = biological target: kinase named in conditions (Homo sapiens, UniProt Q13470); conditions: TNK1, 10 μM
Procedure: as §1, §2, §3

[23] = biological target: kinase named in conditions (Homo sapiens, UniProt Q13976); conditions: PRKG1, 10 μM
Procedure: as §1, §2, §3

[24] = biological target: kinase named in conditions (Homo sapiens, UniProt Q15349); conditions: RPS6KA2 (RSK3), 10 μM
Procedure: as §1, §2, §3

[25] = biological target: kinase named in conditions (Homo sapiens, UniProt Q16288); conditions: NTRK3 (TRKC), 10 μM
Procedure: as §1, §2, §3

[26] = biological target: kinase named in conditions (Homo sapiens, UniProt Q6VAB6); conditions: KSR2, 10 μM
Procedure: as §1, §2, §3

[27] = biological target: kinase named in conditions (Homo sapiens, UniProt Q9BUB5); conditions: MKNK1 (MNK1), 10 μM
Procedure: as §1, §2, §3

[28] = biological target: kinase named in conditions (Homo sapiens, UniProt Q9BXA7); conditions: STK22D (TSSK1), 10 μM
Procedure: as §1, §2, §3

[29] = biological target: kinase named in conditions (Homo sapiens, UniProt Q9NQU5); conditions: PAK6, 10 μM
Procedure: as §1, §2, §3

[30] = biological target: kinase named in conditions (Homo sapiens, UniProt Q9NR20); conditions: read-out: % Inhibition mean
Procedure: as §1, §2, §3

[31] = biological target: kinase named in conditions (Homo sapiens, UniProt Q9NYY3); conditions: PLK2, 10 μM
Procedure: as §1, §2, §3

[32] = biological target: kinase named in conditions (Homo sapiens, UniProt Q9P289); conditions: MST4, 10 μM
Procedure: as §1, §2, §3

[33] = biological target: kinase named in conditions (Homo sapiens, UniProt Q9UM73); conditions: ALK, 10 μM
Procedure: as §1, §2, §3

[34] = biological target: kinase named in conditions (Homo sapiens, UniProt Q9UQB9); conditions: AURKC (Aurora C), 10 μM
Procedure: as §1, §2, §3

[35] = biological target: kinase named in conditions (Homo sapiens, UniProt Q9Y5S2); conditions: CDC42 BPB (MRCKB), 10 μM
Procedure: as §1, §2, §3

kinase named in conditions (Homo sapiens, UniProt P22455), sequence (P22455 22-802): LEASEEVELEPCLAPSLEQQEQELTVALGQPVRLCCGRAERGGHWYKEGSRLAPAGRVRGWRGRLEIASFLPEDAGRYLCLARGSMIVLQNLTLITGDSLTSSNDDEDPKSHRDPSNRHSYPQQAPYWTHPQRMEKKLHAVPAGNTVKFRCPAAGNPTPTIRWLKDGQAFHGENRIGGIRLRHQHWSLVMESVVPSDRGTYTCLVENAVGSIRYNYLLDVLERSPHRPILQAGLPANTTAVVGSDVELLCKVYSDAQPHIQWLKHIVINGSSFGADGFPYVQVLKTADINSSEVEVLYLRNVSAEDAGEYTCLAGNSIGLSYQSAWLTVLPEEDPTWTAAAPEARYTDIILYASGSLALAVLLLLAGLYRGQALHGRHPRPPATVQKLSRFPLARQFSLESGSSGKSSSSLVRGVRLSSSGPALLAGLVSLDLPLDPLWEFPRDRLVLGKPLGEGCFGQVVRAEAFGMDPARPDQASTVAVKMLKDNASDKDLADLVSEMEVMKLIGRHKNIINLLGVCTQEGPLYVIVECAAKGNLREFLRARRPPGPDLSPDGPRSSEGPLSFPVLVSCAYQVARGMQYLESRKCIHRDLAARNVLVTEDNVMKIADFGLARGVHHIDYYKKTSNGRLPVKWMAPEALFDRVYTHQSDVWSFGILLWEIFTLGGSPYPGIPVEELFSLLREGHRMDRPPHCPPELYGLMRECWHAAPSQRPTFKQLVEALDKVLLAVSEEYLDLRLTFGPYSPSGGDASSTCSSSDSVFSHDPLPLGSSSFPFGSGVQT
kinase named in conditions (Homo sapiens, UniProt P23458), sequence (P23458 whole entry): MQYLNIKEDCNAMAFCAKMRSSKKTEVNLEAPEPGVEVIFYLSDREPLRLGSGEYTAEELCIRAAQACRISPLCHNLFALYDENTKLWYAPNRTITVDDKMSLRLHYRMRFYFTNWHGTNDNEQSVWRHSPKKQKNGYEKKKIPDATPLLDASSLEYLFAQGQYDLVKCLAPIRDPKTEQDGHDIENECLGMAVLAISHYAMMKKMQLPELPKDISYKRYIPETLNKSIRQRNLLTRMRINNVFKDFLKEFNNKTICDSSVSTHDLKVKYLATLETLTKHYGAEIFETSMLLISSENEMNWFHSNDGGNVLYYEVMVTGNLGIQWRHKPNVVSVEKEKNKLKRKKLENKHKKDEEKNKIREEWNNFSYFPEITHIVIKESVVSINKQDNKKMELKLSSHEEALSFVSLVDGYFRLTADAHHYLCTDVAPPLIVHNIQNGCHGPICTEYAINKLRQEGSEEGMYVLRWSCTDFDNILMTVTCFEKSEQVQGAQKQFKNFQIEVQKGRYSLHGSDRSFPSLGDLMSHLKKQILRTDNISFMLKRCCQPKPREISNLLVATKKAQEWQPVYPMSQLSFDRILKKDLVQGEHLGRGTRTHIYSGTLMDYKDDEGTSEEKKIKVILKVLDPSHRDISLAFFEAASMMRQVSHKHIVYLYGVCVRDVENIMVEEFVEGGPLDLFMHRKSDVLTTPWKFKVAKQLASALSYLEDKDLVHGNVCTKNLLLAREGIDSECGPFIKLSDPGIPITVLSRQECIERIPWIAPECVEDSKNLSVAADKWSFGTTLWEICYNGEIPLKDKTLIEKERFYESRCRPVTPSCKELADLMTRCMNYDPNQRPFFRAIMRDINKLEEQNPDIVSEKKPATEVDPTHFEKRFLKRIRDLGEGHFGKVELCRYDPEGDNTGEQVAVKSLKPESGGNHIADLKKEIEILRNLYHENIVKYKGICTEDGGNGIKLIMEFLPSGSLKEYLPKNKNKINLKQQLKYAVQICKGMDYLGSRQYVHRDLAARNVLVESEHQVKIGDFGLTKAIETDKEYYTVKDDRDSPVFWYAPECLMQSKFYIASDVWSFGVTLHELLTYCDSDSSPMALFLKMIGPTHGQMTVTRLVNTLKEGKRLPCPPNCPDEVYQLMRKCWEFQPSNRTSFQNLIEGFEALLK
kinase named in conditions (Homo sapiens, UniProt P48730), sequence (P48730 whole entry): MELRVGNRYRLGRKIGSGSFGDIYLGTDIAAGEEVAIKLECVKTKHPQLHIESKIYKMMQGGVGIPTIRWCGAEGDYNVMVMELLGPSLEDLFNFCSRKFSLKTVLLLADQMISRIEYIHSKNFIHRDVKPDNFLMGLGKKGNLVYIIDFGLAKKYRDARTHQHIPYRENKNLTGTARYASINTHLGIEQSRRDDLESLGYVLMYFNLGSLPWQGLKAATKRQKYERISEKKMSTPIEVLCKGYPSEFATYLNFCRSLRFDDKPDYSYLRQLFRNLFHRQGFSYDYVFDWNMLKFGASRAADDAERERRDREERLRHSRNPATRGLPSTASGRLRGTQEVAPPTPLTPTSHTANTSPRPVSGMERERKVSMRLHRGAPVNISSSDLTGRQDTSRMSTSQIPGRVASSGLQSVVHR
kinase named in conditions (Homo sapiens, UniProt Q08881), sequence (Q08881 whole entry): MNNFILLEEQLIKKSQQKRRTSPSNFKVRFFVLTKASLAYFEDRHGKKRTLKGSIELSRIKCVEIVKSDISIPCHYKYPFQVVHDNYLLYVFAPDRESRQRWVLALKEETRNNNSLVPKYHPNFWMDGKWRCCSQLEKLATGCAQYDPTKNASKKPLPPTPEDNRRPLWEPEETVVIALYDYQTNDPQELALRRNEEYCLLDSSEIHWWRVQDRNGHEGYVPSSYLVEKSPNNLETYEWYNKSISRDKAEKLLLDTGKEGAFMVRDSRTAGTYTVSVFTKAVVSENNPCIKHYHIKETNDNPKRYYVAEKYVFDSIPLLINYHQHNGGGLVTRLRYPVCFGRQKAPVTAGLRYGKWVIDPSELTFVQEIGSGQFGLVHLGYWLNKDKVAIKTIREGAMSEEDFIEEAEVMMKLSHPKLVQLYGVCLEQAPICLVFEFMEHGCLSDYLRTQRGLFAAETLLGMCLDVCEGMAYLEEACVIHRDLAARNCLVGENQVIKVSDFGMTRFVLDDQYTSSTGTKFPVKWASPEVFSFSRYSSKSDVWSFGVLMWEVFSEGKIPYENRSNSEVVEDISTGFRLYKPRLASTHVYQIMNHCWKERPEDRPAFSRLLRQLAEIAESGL
kinase named in conditions (Homo sapiens, UniProt Q9NYY3), sequence (Q9NYY3 whole entry): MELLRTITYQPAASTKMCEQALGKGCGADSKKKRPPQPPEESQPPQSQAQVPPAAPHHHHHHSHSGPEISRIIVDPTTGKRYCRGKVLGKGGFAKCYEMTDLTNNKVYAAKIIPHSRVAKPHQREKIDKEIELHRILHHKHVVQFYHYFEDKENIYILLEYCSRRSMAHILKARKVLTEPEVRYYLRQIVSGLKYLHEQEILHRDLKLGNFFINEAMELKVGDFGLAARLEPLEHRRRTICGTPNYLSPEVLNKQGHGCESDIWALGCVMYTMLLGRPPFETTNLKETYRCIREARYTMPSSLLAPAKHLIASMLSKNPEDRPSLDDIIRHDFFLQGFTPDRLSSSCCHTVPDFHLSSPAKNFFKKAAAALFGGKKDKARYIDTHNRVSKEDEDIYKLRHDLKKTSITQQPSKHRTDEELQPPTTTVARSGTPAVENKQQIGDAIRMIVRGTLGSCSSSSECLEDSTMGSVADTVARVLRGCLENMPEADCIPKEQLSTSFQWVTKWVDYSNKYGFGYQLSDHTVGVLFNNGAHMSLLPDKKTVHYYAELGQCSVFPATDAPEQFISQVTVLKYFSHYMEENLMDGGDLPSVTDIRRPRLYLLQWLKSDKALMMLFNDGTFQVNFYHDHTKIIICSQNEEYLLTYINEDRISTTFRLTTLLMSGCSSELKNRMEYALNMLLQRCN
kinase named in conditions (Homo sapiens, UniProt P36888), sequence (P36888 27-993): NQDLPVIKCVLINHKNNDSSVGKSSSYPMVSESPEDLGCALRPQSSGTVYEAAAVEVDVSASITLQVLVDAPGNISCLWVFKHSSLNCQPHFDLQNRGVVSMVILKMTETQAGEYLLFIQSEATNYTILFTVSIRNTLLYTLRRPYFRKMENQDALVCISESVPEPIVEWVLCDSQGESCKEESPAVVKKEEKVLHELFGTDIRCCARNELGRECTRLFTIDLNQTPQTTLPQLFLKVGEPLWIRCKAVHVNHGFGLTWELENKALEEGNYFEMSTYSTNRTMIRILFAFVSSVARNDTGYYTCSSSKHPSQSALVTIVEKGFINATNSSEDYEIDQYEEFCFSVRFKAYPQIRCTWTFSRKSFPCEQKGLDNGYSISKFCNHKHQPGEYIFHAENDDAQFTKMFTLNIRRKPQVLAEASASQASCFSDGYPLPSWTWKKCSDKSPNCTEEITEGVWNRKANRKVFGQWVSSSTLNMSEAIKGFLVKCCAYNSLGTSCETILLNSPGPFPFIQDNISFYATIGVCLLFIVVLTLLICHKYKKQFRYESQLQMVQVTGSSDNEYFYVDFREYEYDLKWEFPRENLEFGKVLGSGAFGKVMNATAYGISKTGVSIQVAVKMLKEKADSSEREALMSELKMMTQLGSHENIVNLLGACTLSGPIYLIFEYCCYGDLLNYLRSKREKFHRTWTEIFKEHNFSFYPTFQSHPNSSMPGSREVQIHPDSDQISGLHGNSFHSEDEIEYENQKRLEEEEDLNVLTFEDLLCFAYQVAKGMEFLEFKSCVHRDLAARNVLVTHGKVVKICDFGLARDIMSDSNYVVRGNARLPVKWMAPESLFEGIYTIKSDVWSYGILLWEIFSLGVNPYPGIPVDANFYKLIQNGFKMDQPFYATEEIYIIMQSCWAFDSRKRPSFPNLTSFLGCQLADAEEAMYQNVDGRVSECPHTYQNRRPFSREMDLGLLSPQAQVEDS
kinase named in conditions (Homo sapiens, UniProt Q9UQB9), sequence (Q9UQB9 whole entry): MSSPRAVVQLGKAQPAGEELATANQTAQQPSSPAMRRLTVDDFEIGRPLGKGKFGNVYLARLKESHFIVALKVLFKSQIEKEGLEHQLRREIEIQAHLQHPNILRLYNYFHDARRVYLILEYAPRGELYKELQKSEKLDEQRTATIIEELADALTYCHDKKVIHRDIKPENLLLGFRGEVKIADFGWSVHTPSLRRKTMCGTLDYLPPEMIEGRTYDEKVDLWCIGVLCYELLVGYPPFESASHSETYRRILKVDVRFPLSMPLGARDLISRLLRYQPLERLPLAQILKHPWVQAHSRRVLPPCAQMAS

FC(F)(F)c1c(Cl)ccc(-n2ccnn2)c1Cl [8l, 1-(2,4-Dichloro-3-(trifluoromethyl)phenyl)-1H-1,2,3-triazole] was tested, and the inhibition at 10 µM [1] was -1%, the inhibition at 10 µM [2] was 16% and the inhibition at 10 µM [3] was 0%. It also gave an inhibition at 10 µM [4] of 4%, an inhibition at 10 µM [5] of 2% and an inhibition at 10 µM [6] of -18%. For the same compound, the inhibition at 10 µM [7] was 0%, the inhibition at 10 µM [8] was 8% and the inhibition at 10 µM [9] was 2%. The inhibition at 10 µM [10] was 2%, the inhibition at 10 µM [11] was 3% and the inhibition at 10 µM [12] was -3%. For the same compound, the inhibition at 10 µM [13] was 15%, the inhibition at 10 µM [14] was 4% and the inhibition at 10 µM [15] was 6%. It also gave an inhibition at 10 µM [16] of 3%, an inhibition at 10 µM [17] of -1% and an inhibition at 10 µM [18] of -1%. For the same compound, the inhibition at 10 µM [19] was 2%, the inhibition at 10 µM [20] was -4% and the inhibition at 10 µM [21] was -3%. It also gave an inhibition at 10 µM [22] of -3%, an inhibition at 10 µM [23] of 15% and an inhibition at 10 µM [24] of 5%. The inhibition at 10 µM [25] was 17%, the inhibition at 10 µM [26] was 2% and the inhibition at 10 µM [27] was 0%. For the same compound, the inhibition at 10 µM [28] was -5%, the inhibition at 10 µM [29] was 15% and the inhibition at 10 µM [30] was 1%. The inhibition at 10 µM [31] was 15%, the inhibition at 10 µM [32] was 23% and the inhibition at 10 µM [33] was 5%. The inhibition at 10 µM [34] was 19% and the inhibition at 10 µM [35] was -1%.
